Results reported in the kinase profiling compilation of Christmann-Franck et al. (2016).

Tests used:
Assay in all cases: radiometric filter-binding kinase assay, Kinase HotSpot
Conditions in all cases: compound 0.5 µM; ATP 10 µM
STK24 (human) = STK24 (human) (UniProt Q9Y6E0)
LTK (human) = LTK (human) (UniProt P29376)
CSNK2A2 (human) = CSNK2A2 (human) (UniProt P19784)
CDK7 CCNH MNAT1 (human) = CDK7 CCNH MNAT1 (human) (UniProt P50613+P51948+P51946)
MAP2K2 (human) = MAP2K2 (human) (UniProt P36507)
SLK (human) = SLK (human) (UniProt Q9H2G2)
SLK (human), sequence (Q9H2G2 whole entry, looked up): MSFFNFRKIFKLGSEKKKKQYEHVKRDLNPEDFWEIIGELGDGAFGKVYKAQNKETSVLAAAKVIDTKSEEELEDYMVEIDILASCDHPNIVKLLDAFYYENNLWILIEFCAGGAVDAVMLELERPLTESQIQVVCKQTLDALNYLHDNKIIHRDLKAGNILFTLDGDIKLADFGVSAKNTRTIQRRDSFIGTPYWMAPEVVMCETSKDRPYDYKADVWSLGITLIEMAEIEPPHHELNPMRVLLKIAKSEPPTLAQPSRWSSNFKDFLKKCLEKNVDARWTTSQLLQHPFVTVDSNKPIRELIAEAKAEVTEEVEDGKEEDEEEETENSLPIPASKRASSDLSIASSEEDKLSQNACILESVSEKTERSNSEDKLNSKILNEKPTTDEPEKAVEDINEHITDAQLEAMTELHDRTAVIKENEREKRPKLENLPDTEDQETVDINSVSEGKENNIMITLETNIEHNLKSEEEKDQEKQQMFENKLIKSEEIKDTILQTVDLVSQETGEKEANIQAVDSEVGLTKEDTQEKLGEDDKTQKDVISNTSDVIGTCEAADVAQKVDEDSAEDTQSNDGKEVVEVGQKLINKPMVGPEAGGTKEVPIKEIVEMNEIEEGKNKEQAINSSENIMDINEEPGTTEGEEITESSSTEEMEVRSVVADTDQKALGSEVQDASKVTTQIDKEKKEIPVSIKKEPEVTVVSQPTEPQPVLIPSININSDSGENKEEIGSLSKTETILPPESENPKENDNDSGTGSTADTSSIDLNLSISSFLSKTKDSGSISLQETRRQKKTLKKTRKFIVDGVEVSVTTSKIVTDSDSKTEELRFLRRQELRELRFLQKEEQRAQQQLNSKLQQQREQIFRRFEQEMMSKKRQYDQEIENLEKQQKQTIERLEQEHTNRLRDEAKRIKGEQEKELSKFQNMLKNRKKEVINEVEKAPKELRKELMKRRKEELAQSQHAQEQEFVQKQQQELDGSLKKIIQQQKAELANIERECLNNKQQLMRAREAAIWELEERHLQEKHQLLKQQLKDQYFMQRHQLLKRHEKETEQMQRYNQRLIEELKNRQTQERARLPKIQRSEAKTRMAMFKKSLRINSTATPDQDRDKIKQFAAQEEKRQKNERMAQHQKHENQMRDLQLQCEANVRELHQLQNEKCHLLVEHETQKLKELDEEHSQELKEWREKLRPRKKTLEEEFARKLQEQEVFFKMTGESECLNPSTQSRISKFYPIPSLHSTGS

DSTYK (human) = DSTYK (human) (UniProt Q6XUX3)
TYRO3 (human) = TYRO3 (human) (UniProt Q06418)
CLK2 (human) = CLK2 (human) (UniProt P49760)
PRKD1 (human) = PRKD1 (human) (UniProt Q15139)
TAOK2 (human) = TAOK2 (human) (UniProt Q9UL54)
KIT (human) = KIT (human) (UniProt P10721)
SIK2 (human) = SIK2 (human) (UniProt Q9H0K1)
MST1R (human) = MST1R (human) (UniProt Q04912)
FGR (human) = FGR (human) (UniProt P09769)
STK16 (human) = STK16 (human) (UniProt O75716)
STK16 (human), sequence (O75716 whole entry, looked up): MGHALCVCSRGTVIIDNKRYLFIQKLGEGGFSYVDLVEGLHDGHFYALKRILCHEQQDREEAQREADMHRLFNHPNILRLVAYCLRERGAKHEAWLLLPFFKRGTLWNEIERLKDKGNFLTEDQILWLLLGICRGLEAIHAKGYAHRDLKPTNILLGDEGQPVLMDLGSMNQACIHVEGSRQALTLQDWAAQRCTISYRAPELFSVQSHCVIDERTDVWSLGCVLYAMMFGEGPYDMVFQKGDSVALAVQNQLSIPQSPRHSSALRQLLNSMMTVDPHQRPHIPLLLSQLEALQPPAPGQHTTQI

ALK (human) = ALK (human) (UniProt Q9UM73)
DCLK2 (human) = DCLK2 (human) (UniProt Q8N568)
SRPK2 (human) = SRPK2 (human) (UniProt P78362)
EPHA1 (human) = EPHA1 (human) (UniProt P21709)
MAPK9 (human) = MAPK9 (human) (UniProt P45984)
MYLK (human) = MYLK (human) (UniProt Q15746)
FLT3 (human) = FLT3 (human) (UniProt P36888)
JAK2 JH1 JH2 (human) = JAK2 JH1 JH2 (human) (UniProt O60674)
PRKACA (human) = PRKACA (human) (UniProt P17612)
PLK2 (human) = PLK2 (human) (UniProt Q9NYY3)
PLK2 (human), sequence (Q9NYY3 whole entry, looked up): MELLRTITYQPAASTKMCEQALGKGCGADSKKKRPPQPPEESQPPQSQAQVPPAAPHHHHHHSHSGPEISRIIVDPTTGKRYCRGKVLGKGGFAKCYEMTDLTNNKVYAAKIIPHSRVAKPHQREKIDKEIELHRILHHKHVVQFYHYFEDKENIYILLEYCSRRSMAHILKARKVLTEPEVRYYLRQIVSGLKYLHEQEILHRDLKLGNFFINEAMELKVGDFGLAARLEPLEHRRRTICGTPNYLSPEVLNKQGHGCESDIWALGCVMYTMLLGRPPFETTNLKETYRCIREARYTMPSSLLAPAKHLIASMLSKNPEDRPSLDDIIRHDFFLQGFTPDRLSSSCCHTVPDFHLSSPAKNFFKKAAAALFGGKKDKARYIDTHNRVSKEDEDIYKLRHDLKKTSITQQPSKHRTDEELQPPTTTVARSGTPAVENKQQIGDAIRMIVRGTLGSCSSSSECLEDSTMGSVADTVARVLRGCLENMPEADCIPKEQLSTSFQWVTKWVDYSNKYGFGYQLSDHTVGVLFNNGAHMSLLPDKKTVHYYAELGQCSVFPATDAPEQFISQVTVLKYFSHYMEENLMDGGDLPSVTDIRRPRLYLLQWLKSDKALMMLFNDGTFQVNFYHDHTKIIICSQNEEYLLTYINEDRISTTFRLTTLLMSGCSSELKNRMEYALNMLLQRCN

MAP3K14 (human) = MAP3K14 (human) (UniProt Q99558)
CAMKK1 (human) = CAMKK1 (human) (UniProt Q8N5S9)
CAMK2A (human) = CAMK2A (human) (UniProt Q9UQM7)
CSNK1G3 (human) = CSNK1G3 (human) (UniProt Q9Y6M4)
TAOK3 (human) = TAOK3 (human) (UniProt Q9H2K8)
ABL2 (human) = ABL2 (human) (UniProt P42684)
PASK (human) = PASK (human) (UniProt Q96RG2)
OXSR1 (human) = OXSR1 (human) (UniProt O95747)
OXSR1 (human), sequence (O95747 whole entry, looked up): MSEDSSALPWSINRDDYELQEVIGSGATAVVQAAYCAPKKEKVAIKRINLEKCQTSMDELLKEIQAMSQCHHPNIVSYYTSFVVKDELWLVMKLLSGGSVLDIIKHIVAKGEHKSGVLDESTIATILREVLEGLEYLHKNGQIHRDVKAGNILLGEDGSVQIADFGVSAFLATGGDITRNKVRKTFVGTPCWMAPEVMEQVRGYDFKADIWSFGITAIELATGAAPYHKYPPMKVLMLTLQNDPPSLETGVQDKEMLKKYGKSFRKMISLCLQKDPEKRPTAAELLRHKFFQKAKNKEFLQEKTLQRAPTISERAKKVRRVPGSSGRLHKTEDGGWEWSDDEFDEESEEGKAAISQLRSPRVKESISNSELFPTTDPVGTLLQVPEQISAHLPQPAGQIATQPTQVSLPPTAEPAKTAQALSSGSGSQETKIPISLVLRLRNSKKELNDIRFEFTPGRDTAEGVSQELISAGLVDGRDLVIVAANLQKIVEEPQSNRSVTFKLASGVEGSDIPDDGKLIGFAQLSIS

DYRK1A (human) = DYRK1A (human) (UniProt Q13627)
FGFR2 (human) = FGFR2 (human) (UniProt P21802)
AURKC (human) = AURKC (human) (UniProt Q9UQB9)
AURKC (human), sequence (Q9UQB9 whole entry, looked up): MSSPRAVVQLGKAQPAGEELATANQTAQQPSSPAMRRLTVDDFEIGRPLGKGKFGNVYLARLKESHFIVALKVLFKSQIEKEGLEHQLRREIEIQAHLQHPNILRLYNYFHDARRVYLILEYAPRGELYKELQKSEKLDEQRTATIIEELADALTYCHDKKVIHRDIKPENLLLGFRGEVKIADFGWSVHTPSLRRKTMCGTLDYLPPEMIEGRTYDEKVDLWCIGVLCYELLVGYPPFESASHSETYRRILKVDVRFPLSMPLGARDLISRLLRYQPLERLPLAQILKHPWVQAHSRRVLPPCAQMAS

AURKB (human) = AURKB (human) (UniProt Q96GD4)
TNK2 (human) = TNK2 (human) (UniProt Q07912)
TNK2 (human), sequence (Q07912 whole entry, looked up): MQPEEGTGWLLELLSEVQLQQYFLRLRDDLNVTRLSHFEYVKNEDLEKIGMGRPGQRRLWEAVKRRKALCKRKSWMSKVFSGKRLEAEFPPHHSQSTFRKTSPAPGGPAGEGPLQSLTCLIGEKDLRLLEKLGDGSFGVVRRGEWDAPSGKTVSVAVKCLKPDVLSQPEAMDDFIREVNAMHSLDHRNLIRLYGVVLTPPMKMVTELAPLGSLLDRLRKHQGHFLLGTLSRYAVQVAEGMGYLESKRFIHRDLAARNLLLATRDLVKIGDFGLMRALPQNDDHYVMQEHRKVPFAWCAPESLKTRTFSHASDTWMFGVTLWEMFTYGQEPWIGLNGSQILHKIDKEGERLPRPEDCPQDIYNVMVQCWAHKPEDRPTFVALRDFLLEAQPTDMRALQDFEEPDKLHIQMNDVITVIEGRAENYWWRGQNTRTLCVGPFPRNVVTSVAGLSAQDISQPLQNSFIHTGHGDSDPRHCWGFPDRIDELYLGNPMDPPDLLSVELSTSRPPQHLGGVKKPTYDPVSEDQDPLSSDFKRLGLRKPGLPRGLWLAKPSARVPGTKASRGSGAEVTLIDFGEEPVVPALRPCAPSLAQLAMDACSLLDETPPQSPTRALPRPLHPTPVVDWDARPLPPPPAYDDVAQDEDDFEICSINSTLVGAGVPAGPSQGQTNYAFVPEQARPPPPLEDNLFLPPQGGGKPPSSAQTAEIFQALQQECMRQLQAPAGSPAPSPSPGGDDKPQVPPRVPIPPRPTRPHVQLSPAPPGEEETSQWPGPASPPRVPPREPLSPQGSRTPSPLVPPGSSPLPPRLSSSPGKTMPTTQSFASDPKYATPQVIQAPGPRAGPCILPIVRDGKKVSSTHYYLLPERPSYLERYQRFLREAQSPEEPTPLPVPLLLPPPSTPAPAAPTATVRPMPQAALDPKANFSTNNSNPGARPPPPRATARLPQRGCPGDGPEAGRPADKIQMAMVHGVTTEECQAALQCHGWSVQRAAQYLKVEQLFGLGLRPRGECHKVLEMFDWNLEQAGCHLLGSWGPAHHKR

HIPK2 (human) = HIPK2 (human) (UniProt Q9H2X6)
PRKCE (human) = PRKCE (human) (UniProt Q02156)
DDR2 (human) = DDR2 (human) (UniProt Q16832)
DDR2 (human), sequence (Q16832 whole entry, looked up): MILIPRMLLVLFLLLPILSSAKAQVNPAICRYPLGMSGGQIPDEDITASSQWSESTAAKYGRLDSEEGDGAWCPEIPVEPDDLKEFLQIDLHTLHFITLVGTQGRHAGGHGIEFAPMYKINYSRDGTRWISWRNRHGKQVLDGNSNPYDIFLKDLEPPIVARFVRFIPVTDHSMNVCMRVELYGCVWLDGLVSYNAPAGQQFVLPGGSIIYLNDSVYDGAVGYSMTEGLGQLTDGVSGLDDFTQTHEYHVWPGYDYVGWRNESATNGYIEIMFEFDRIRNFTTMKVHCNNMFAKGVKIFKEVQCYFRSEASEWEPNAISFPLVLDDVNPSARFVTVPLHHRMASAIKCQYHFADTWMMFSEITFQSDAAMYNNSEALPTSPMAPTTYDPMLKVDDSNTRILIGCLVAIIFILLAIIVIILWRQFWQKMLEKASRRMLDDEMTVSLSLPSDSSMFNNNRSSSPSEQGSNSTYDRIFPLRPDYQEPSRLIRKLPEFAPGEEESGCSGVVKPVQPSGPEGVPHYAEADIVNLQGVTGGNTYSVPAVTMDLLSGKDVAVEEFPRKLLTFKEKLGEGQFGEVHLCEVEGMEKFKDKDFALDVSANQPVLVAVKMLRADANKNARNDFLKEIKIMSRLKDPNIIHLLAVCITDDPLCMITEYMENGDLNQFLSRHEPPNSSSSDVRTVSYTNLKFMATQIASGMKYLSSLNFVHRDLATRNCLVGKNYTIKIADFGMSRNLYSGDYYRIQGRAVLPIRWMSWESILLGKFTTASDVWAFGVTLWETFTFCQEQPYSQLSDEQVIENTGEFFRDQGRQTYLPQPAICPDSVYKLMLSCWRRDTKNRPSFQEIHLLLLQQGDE

Work on `CN(C)S(=O)(=O)c1ccc2c(c1)/C(=C/c1cc3c([nH]1)CCCC3)C(=O)N2` yielded a residual activity (STK24 (human)) of 47.7%, a residual activity (LTK (human)) of 52.7% and a residual activity (CSNK2A2 (human)) of 92.1%. It also gave a residual activity (CDK7 CCNH MNAT1 (human)) of 76.4%, a residual activity (MAP2K2 (human)) of 104% and a residual activity (SLK (human)) of 23.4%. The residual activity (DSTYK (human)) was 96%, the residual activity (TYRO3 (human)) was 57.2% and the residual activity (CLK2 (human)) was 32.1%. For the same compound, the residual activity (PRKD1 (human)) was 102%, the residual activity (TAOK2 (human)) was 89.6% and the residual activity (KIT (human)) was 60.7%. For the same compound, the residual activity (SIK2 (human)) was 86.4%, the residual activity (MST1R (human)) was 101% and the residual activity (FGR (human)) was 18.2%. The residual activity (STK16 (human)) was 104%, the residual activity (ALK (human)) was 43.6% and the residual activity (DCLK2 (human)) was 72%. For the same compound, the residual activity (SRPK2 (human)) was 50.3%, the residual activity (EPHA1 (human)) was 94.5% and the residual activity (MAPK9 (human)) was 104%. The residual activity (MYLK (human)) was 97.2%, the residual activity (FLT3 (human)) was 10.2% and the residual activity (JAK2 JH1 JH2 (human)) was 46.1%. It also gave a residual activity (PRKACA (human)) of 106%, a residual activity (PLK2 (human)) of 94.4% and a residual activity (MAP3K14 (human)) of 94.6%. The residual activity (CAMKK1 (human)) was 65.4%, the residual activity (CAMK2A (human)) was 61.4% and the residual activity (CSNK1G3 (human)) was 101%. It also gave a residual activity (TAOK3 (human)) of 55.4%, a residual activity (ABL2 (human)) of 56.8% and a residual activity (PASK (human)) of 95.6%. It also gave a residual activity (OXSR1 (human)) of 89.1%, a residual activity (DYRK1A (human)) of 81.1% and a residual activity (FGFR2 (human)) of 49.3%. It also gave a residual activity (AURKC (human)) of 33.8%, a residual activity (AURKB (human)) of 11% and a residual activity (TNK2 (human)) of 12.6%. For the same compound, the residual activity (HIPK2 (human)) was 98.2% and the residual activity (PRKCE (human)) was 94.6%.
`COc1ccc(C(=O)Nc2sc3c(c2C(N)=O)CCCC3)cc1OC` was tested, and the residual activity (STK24 (human)) was 93.9%, the residual activity (LTK (human)) was 40.5% and the residual activity (CSNK2A2 (human)) was 104%. It also gave a residual activity (CDK7 CCNH MNAT1 (human)) of 99.9%, a residual activity (MAP2K2 (human)) of 95.3% and a residual activity (SLK (human)) of 92.5%. The residual activity (DSTYK (human)) was 92.2%, the residual activity (TYRO3 (human)) was 98.1% and the residual activity (CLK2 (human)) was 86.5%. It also gave a residual activity (PRKD1 (human)) of 99.6%, a residual activity (TAOK2 (human)) of 97% and a residual activity (KIT (human)) of 46.2%. It also gave a residual activity (SIK2 (human)) of 102%, a residual activity (MST1R (human)) of 105% and a residual activity (FGR (human)) of 90%. For the same compound, the residual activity (STK16 (human)) was 106%, the residual activity (ALK (human)) was 66.2% and the residual activity (DCLK2 (human)) was 98.6%. It also gave a residual activity (SRPK2 (human)) of 97.6%, a residual activity (EPHA1 (human)) of 88.1% and a residual activity (MAPK9 (human)) of 118%. It also gave a residual activity (MYLK (human)) of 41.2%, a residual activity (FLT3 (human)) of 42% and a residual activity (JAK2 JH1 JH2 (human)) of 99.9%. The residual activity (PRKACA (human)) was 102%, the residual activity (PLK2 (human)) was 106% and the residual activity (MAP3K14 (human)) was 88%. For the same compound, the residual activity (CAMKK1 (human)) was 125%, the residual activity (CAMK2A (human)) was 100% and the residual activity (CSNK1G3 (human)) was 91.7%. The residual activity (TAOK3 (human)) was 100%, the residual activity (ABL2 (human)) was 101% and the residual activity (PASK (human)) was 101%. The residual activity (OXSR1 (human)) was 99.9%, the residual activity (DYRK1A (human)) was 97.4% and the residual activity (FGFR2 (human)) was 100%. The residual activity (AURKC (human)) was 97.2%, the residual activity (AURKB (human)) was 96.2% and the residual activity (TNK2 (human)) was 93.4%. The residual activity (HIPK2 (human)) was 107%, the residual activity (PRKCE (human)) was 95% and the residual activity (DDR2 (human)) was 102%.
Compound `O=C1Nc2ccc(Br)cc2/C1=C\c1cc2c([nH]1)CCCC2` has a residual activity (STK24 (human)) of 94.2%, a residual activity (LTK (human)) of 70.6% and a residual activity (CDK7 CCNH MNAT1 (human)) of 93.6%. It also gave a residual activity (MAP2K2 (human)) of 92.1%, a residual activity (SLK (human)) of 73.4% and a residual activity (DSTYK (human)) of 93.1%. It also gave a residual activity (TYRO3 (human)) of 104%, a residual activity (CLK2 (human)) of 88.6% and a residual activity (PRKD1 (human)) of 93.8%. The residual activity (TAOK2 (human)) was 89.4%, the residual activity (KIT (human)) was 30.5% and the residual activity (SIK2 (human)) was 92.7%. The residual activity (MST1R (human)) was 88.3%, the residual activity (FGR (human)) was 67.7% and the residual activity (STK16 (human)) was 94.3%. For the same compound, the residual activity (ALK (human)) was 88.5%, the residual activity (DCLK2 (human)) was 98.2% and the residual activity (SRPK2 (human)) was 90.6%. It also gave a residual activity (EPHA1 (human)) of 93.1%, a residual activity (MAPK9 (human)) of 99.4% and a residual activity (MYLK (human)) of 95.7%. The residual activity (FLT3 (human)) was 3.86%, the residual activity (JAK2 JH1 JH2 (human)) was 95.2% and the residual activity (PRKACA (human)) was 96.5%. The residual activity (PLK2 (human)) was 102%, the residual activity (MAP3K14 (human)) was 112% and the residual activity (CAMKK1 (human)) was 69.6%. For the same compound, the residual activity (CAMK2A (human)) was 93.3%, the residual activity (CSNK1G3 (human)) was 103% and the residual activity (TAOK3 (human)) was 75.3%. It also gave a residual activity (ABL2 (human)) of 82.6%, a residual activity (PASK (human)) of 98.9% and a residual activity (OXSR1 (human)) of 96.7%. It also gave a residual activity (DYRK1A (human)) of 87.1%, a residual activity (FGFR2 (human)) of 87.4% and a residual activity (AURKC (human)) of 86.3%. For the same compound, the residual activity (AURKB (human)) was 56.7%, the residual activity (TNK2 (human)) was 92.8% and the residual activity (HIPK2 (human)) was 91%. The residual activity (PRKCE (human)) was 99.1% and the residual activity (DDR2 (human)) was 101%.
In the case of `O=C1C(Cl)=C(N2C(=O)CCC2=O)C(=O)c2ccccc21`, the residual activity (STK24 (human)) is reported as 87%, the residual activity (LTK (human)) is reported as 100% and the residual activity (CSNK2A2 (human)) is reported as 100%. For the same compound, the residual activity (CDK7 CCNH MNAT1 (human)) was 101%, the residual activity (MAP2K2 (human)) was 106% and the residual activity (SLK (human)) was 104%. The residual activity (DSTYK (human)) was 95.4%, the residual activity (TYRO3 (human)) was 114% and the residual activity (CLK2 (human)) was 90.7%. For the same compound, the residual activity (PRKD1 (human)) was 104%, the residual activity (TAOK2 (human)) was 99.2% and the residual activity (KIT (human)) was 84.7%. The residual activity (SIK2 (human)) was 92.8%, the residual activity (MST1R (human)) was 94.5% and the residual activity (FGR (human)) was 102%. It also gave a residual activity (STK16 (human)) of 100%, a residual activity (ALK (human)) of 88.5% and a residual activity (DCLK2 (human)) of 100%. For the same compound, the residual activity (SRPK2 (human)) was 100%, the residual activity (EPHA1 (human)) was 97.6% and the residual activity (MAPK9 (human)) was 93.6%. It also gave a residual activity (MYLK (human)) of 99.4%, a residual activity (FLT3 (human)) of 108% and a residual activity (JAK2 JH1 JH2 (human)) of 104%. The residual activity (PRKACA (human)) was 88.8%, the residual activity (PLK2 (human)) was 96% and the residual activity (MAP3K14 (human)) was 102%. For the same compound, the residual activity (CAMKK1 (human)) was 112%, the residual activity (CAMK2A (human)) was 89.6% and the residual activity (CSNK1G3 (human)) was 93.5%. For the same compound, the residual activity (TAOK3 (human)) was 95.3%, the residual activity (ABL2 (human)) was 106% and the residual activity (PASK (human)) was 103%. It also gave a residual activity (OXSR1 (human)) of 108%, a residual activity (DYRK1A (human)) of 99.1% and a residual activity (FGFR2 (human)) of 102%. The residual activity (AURKC (human)) was 97.9%, the residual activity (AURKB (human)) was 103% and the residual activity (TNK2 (human)) was 91.5%. The residual activity (HIPK2 (human)) was 104% and the residual activity (DDR2 (human)) was 95.8%.
